Test results as given in publication PMC9606955, “In Vitro Activity of Essential Oils Distilled from Colombian Plants against Candida auris and Other Candida Species with Different Antifungal Susceptibility Profiles” (Molecules, 2022).
Converted amounts (≈) assume the structure as drawn.

Columns and labels:
C. krusei ATCC 6258 = test: MIC, CLSI M27 broth microdilution; assay type: cell-based, Candida krusei; settings: C. krusei ATCC 6258; EOs and terpenes; 24 h; top concentration 256 µg/mL
Text: (§1) The fungal strains used in this study were C. albicans ATCC 10231, C. albicans ATCC 64550, C. parapsilosis ATCC 22019, C. tropicalis ATCC 750, C. tropicalis ATCC 200956 (resistant to azoles and AMB), C. glabrata LMDM 34 (resistant to echinocandins), C. metapsilosis MUM 15.12, C. orthopsilosis MUM 17.13, C. lusitaniae MUM 17.08, C. krusei ATCC 6258 (Issatchenkia orientalis ATCC 6258), and C. auris CDC B11903. Additionally, nine clinical isolates were included: C. parapsilosis Synlab 406 (FLC-resistant) and eight C. auris isolates identified by MALDI-TOF MS (Bruker Daltonics, Bremen, Germany) according to Zhao et al.. These yeasts were cultured on Sabouraud Dextrose Agar (SDA; Sigma-Aldrich, St. Louis, MO, USA) for 24 h at 35 °C.
(§2) Antifungal susceptibility testing was performed according to Clinical and Laboratory Standards Institute M27, 4th Edition (CLSI standard M27, 4th Edition). Some modifications were applied for evaluation of the antifungal activity of EOs and terpenes. Initially, a screening was carried out to determine the antifungal activity of the EOs and of commercial terpenes. Stock concentrations of EOs and terpenes were prepared at 512 µg/mL and an inoculum of 2.5 × 10^3 CFU/mL of each yeast was prepared in RPMI 1640-MOPS (Sigma- Aldrich St. Louis, MO, USA). Thereafter, 100 µL of each stock solution of EOs or terpenes was dispensed in 96-well microdilution plates (Corning®, Costar®, NY, USA) and 100 µL of each yeast inoculum was added. […] Microdilution plates were incubated at 35 °C and, after 24 h, the presence or absence of growth was visually checked using a manual mirror viewer and then compared with the amount of growth in the control (no EO or terpene). Compounds able to inhibit yeast growth were tested to determine the minimal inhibitory concentration (MIC) as follows: 100 µL of 10 two-fold dilutions of the EOs or commercial terpenes was dispensed in 96-well microplates and the yeast inoculum was added. Final concentrations of the EOs or terpenes ranged from 0.5 µg/mL to 256 µg/mL. Microdilution plates were incubated at 35 °C for 24 h. MICs were visually determined at the lowest concentration that produced visual inhibition compared to the growth control. The assays were performed at least three times in duplicate on different days. The results were expressed as geometric means (GM) and ranges. As an antifungal susceptibility testing control, the activity of ITC and AMB against the reference strains C. krusei ATCC 6258 and C. parapsilosis ATCC 22019 was evaluated in all experiments following the CLSI standard M27, 4th Edition. It was mandatory that the MIC values remained in the accepted range.

[1] = test system: C. tropicalis ATCC 200956; test: MIC, CLSI M27 broth microdilution; assay type: cell-based, Candida tropicalis; settings: C. tropicalis ATCC 200956, EOs and terpenes
Text: as §1, §2

[2] = test system: C. metapsilosis MUM 15.12; test: MIC, CLSI M27 broth microdilution; assay type: cell-based, Candida metapsilosis; settings: C. metapsilosis MUM 17.13 (Table 3), EOs and terpenes, 24 h, top concentration 256 µg/mL
Text: as §1, §2

[3] = test system: C. orthopsilosis MUM 17.13; test: MIC, CLSI M27 broth microdilution; assay type: cell-based, Candida orthopsilosis; settings: C. orthopsilosis MUM 15.12 (Table 3), EOs and terpenes, 24 h, top concentration 256 µg/mL
Text: as §1, §2

C. lusitaniae MUM 17.08 = test: MIC, CLSI M27 broth microdilution; assay type: cell-based, Candida lusitaniae; settings: C. lusitaniae MUM 17.08, EOs and terpenes
Text: as §1, §2

C. auris CDC B11903 = test: MIC, CLSI M27 broth microdilution; assay type: cell-based, Candida auris; settings: C. auris CDC B11903, EOs and terpenes, 24 h, top concentration 256 µg/mL
Text: as §1, §2

C. auris Ca 13 = test: MIC, CLSI M27 broth microdilution; assay type: cell-based, Candida auris; settings: C. auris Ca 13, EOs and terpenes
Text: as §1, §2

C. auris Ca 17 = test: MIC, CLSI M27 broth microdilution; assay type: cell-based, Candida auris; settings: C. auris Ca 17, EOs and terpenes, 24 h, top concentration 256 µg/mL
Text: as §1, §2

C. auris Ca 1 = test: MIC, CLSI M27 broth microdilution; assay type: cell-based, Candida auris; settings: C. auris Ca 1, EOs and terpenes, 24 h, top concentration 256 µg/mL
Text: as §1, §2

C. auris Ca 32 = test: MIC, CLSI M27 broth microdilution; assay type: cell-based, Candida auris; settings: C. auris Ca 32, EOs and terpenes
Text: as §1, §2

C. auris Ca 41 = test: MIC, CLSI M27 broth microdilution; assay type: cell-based, Candida auris; settings: C. auris Ca 41, EOs and terpenes, 24 h, top concentration 256 µg/mL
Text: as §1, §2

C. auris Ca 45 = test: MIC, CLSI M27 broth microdilution; assay type: cell-based, Candida auris; settings: C. auris Ca 45, EOs and terpenes, 24 h, top concentration 256 µg/mL
Text: as §1, §2

C. auris Ca 46 = test: MIC, CLSI M27 broth microdilution; assay type: cell-based, Candida auris; settings: C. auris Ca 46, EOs and terpenes, 24 h, top concentration 256 µg/mL
Text: as §1, §2

C. auris Ca 9 = test: MIC, CLSI M27 broth microdilution; assay type: cell-based, Candida auris; settings: C. auris Ca 9, EOs and terpenes
Text: as §1, §2

[4] = test system: C. parapsilosis Synlab 406; test: MIC, CLSI M27 broth microdilution; assay type: cell-based, Candida parapsilosis; settings: C. parapsilosis Synlab 406, EOs and terpenes
Text: as §1, §2

C. auris = test: MIC, CLSI M27 broth microdilution, several C. auris strains together; assay type: cell-based, Candida auris; settings: over all C. auris strains of Table 4
Text: as §1
(§3) Antifungal susceptibility testing was performed according to Clinical and Laboratory Standards Institute M27, 4th Edition (CLSI standard M27, 4th Edition). […] MICs were visually determined at the lowest concentration that produced visual inhibition compared to the growth control. […] The results were expressed as geometric means (GM) and ranges. As an antifungal susceptibility testing control, the activity of ITC and AMB against the reference strains C. krusei ATCC 6258 and C. parapsilosis ATCC 22019 was evaluated in all experiments following the CLSI standard M27, 4th Edition. […]

Candida spp. [5] = test: MIC, CLSI M27 broth microdilution, all Candida spp. of Tables 3 and 4 together; assay type: cell-based; settings: over all strains of Table 3 and Table 4
Text: as §1, §3

Candida spp. [6] = test: Screening of antifungal activity at 256 µg/mL against twenty strains; assay type: cell-based; settings: screening at 256 µg/mL
Text: as §1
Antifungal susceptibility testing was performed according to Clinical and Laboratory Standards Institute M27, 4th Edition (CLSI standard M27, 4th Edition). Some modifications were applied for evaluation of the antifungal activity of EOs and terpenes. Initially, a screening was carried out to determine the antifungal activity of the EOs and of commercial terpenes. Stock concentrations of EOs and terpenes were prepared at 512 µg/mL and an inoculum of 2.5 × 10^3 CFU/mL of each yeast was prepared in RPMI 1640-MOPS (Sigma- Aldrich St. Louis, MO, USA). Thereafter, 100 µL of each stock solution of EOs or terpenes was dispensed in 96-well microdilution plates (Corning®, Costar®, NY, USA) and 100 µL of each yeast inoculum was added. […] MICs were visually determined at the lowest concentration that produced visual inhibition compared to the growth control. […] The results were expressed as geometric means (GM) and ranges. As an antifungal susceptibility testing control, the activity of ITC and AMB against the reference strains C. krusei ATCC 6258 and C. parapsilosis ATCC 22019 was evaluated in all experiments following the CLSI standard M27, 4th Edition. […]

HaCaT cell line = test: Cytotoxicity, MTT assay; settings: MTT, 24 h treatment, HaCaT keratinocytes
Protocol: (§4) Cells were cultured in Dulbecco’s Modified Eagle Medium (DMEM; Sigma-Aldrich, St. Louis, MO, USA) supplemented with 10% fetal bovine serum (Invitrogen, Carlsbad, CA, USA), 1% penicillin, streptomycin, and neomycin (Invitrogen, Carlsbad, CA, USA), and 1% L-glutamine (Invitrogen, Carlsbad, CA, USA) at 37 °C in a humidified atmosphere of 5% CO2. […] Afterwards, the culture medium was removed and 3-(4.5-dimethylthiazol-2-yl)-2.5-diphenyltetrazolium bromide (MTT) (Sigma-Aldrich, St. Louis, MO, USA) at 5 mg/mL was added at 37 °C for 2 h. Subsequently, DMSO was added to dissolve the formazan crystals. Finally, the absorbances were measured with a Multiskan SkyHigh Microplate Spectrophotometer (Thermo Fisher Scientific, Waltham, MA, USA) at λ = 570 nm. The CC50 values were obtained by linear regression analysis with concentration–response curves, which were performed with absorbance data using GraphPad Prism software (Prism 9.3.0, San Diego, CA, USA). The assays were conducted at two separate times in triplicate. The data were expressed as means.

in vitro = settings: human
Protocol: as §4

[7] = 24 h, top concentration 256 µg/mL

For `C=C(C)[C@H]1CC=C(C)CC1` [Limonene, limonene], the “GM MIC” value (C. krusei ATCC 6258) was 32 µg/mL, the “GM MIC” value [1, 7] was 64 µg/mL and the “GM MIC” value [2] was 64 µg/mL. For the same compound, the “GM MIC” value [3] was 16 µg/mL, the “Range MIC” value (C. lusitaniae MUM 17.08) was 16 to 32 µg/mL and the “GM MIC” value (C. lusitaniae MUM 17.08; [7]) was 22.6 µg/mL. For the same compound, the “GM MIC” value (C. auris CDC B11903) was 64 µg/mL, the “Range MIC” value (C. auris Ca 13) was 16 to 32 µg/mL and the “GM MIC” value (C. auris Ca 13; [7]) was 22.6 µg/mL. For the same compound, the “GM MIC” value (C. auris Ca 17) was 64 µg/mL, the “GM MIC” value (C. auris Ca 1) was 64 µg/mL and the “Range MIC” value (C. auris Ca 32) was 16 to 32 µg/mL. For the same compound, the “GM MIC” value (C. auris Ca 32; [7]) was 22.6 µg/mL, the “GM MIC” value (C. auris Ca 41) was 16 µg/mL and the “GM MIC” value (C. auris Ca 45) was 16 µg/mL. The “GM MIC” value (C. auris Ca 46) was 16 µg/mL, the “Range MIC” value (C. auris Ca 9) was 16 to 32 µg/mL and the “GM MIC” value (C. auris Ca 9; [7]) was 22.6 µg/mL. The “GM MIC” value [4, 7] was 64 µg/mL, the MIC Range (C. auris) was 16 to 64 µg/mL and the MIC Range (Candida spp. [5]) was 16 to 64 µg/mL. The “antifungal activity in screening” value (Candida spp. [6]) was “active against all tested Candida spp” and the “HaCaT Cells Mean CC50” value (HaCaT cell line) was 400.5 µg/mL.
For `C=C(C)[C@@H]1CC=C(CO)CC1` [Perillyl alcohol, perillyl alcohol], the “Range MIC” value [1] was 128 to 256 µg/mL, the MIC ([1]; Candida tropicalis, ATCC200956, 24 h, top concentration 256 µg/mL, read-out: GM MIC) was 181 µg/mL (≈ 1190 µM) and the MIC ([2]; Lodderomyces metapsilosis, MUM15.12, read-out: GM MIC) was 256 µg/mL (≈ 1680 µM). For the same compound, the MIC ([3]; Lodderomyces orthopsilosis, MUM17.13, read-out: GM MIC) was 256 µg/mL (≈ 1680 µM), the “Range MIC” value (C. lusitaniae MUM 17.08) was 128 to 256 µg/mL and the MIC (C. lusitaniae MUM 17.08; Clavispora lusitaniae, MUM17.08, 24 h, top concentration 256 µg/mL, read-out: GM MIC) was 181 µg/mL (≈ 1190 µM). The MIC (C. auris CDC B11903; Candidozyma auris, CDCB11903, read-out: GM MIC) was 256 µg/mL (≈ 1680 µM), the MIC (C. auris Ca 13; Candidozyma auris, CA13, 24 h, top concentration 256 µg/mL, read-out: GM MIC) was 256 µg/mL (≈ 1680 µM) and the MIC (C. auris Ca 17; Candidozyma auris, CA17, read-out: GM MIC) was 256 µg/mL (≈ 1680 µM). The MIC (C. auris Ca 1; Candidozyma auris, CA1, read-out: GM MIC) was 256 µg/mL (≈ 1680 µM), the MIC (C. auris Ca 32; Candidozyma auris, CA32, 24 h, top concentration 256 µg/mL, read-out: GM MIC) was 128 µg/mL (≈ 841 µM) and the MIC (C. auris Ca 41; Candidozyma auris, CA41, read-out: GM MIC) was 128 µg/mL (≈ 841 µM). It also gave an MIC (C. auris Ca 45; Candidozyma auris, CA45, read-out: GM MIC) of 256 µg/mL (≈ 1680 µM), an MIC (C. auris Ca 46; Candidozyma auris, CA46, read-out: GM MIC) of 256 µg/mL (≈ 1680 µM) and an MIC (C. auris Ca 9; Candidozyma auris, CA9, 24 h, top concentration 256 µg/mL, read-out: GM MIC) of 128 µg/mL (≈ 841 µM). The “Range MIC” value [4] was 64 to 128 µg/mL, the MIC ([4]; Lodderomyces parapsilosis, SYNLAB406, 24 h, top concentration 256 µg/mL, read-out: GM MIC) was 90.5 µg/mL (≈ 594 µM) and the CC50 at 24 h (in vitro) was 401 µg/mL (≈ 2630 µM).
